Results on eight compounds are retold here after the NIST ThermoML archive (doi:10.1016/j.fluid.2014.10.043).

Numbers after ± are expanded uncertainties.

The conditions of series [1]: 293.2 K; 101.33 kPa; Liquid; Vibrating tube method.
The nature of series [2]: refractive index (Na D-line) (dimensionless). To be noted: 293.2 K; 101.33 kPa; Liquid; Standard Abbe refractometry.

In general, mass density refers to the mass of a sample divided by its volume. A word on the refractive index: it is a measure of how strongly the sample bends light. `CCCC(=O)O` [butanoic acid]: in series [1], the mass density is 957.8 ± 0.37 kg/m3. For the same compound, the refractive index in series [2] was determined as 1.3965 ± 0.0005.

As for `CCCCN(CCCC)CCCC` [tributylamine], in series [1], the mass density amounted to 782.3 ± 0.61 kg/m3. In addition, the refractive index in series [2] worked out at 1.4275 ± 0.0006.

In the case of `CCOC(=O)CC(=O)OCC` [diethyl 1,3-propanedioate], the mass density in series [1] came out at 1055.25 ± 0.98 kg/m3. For the same compound, the refractive index in series [2] is recorded as 1.4135 ± 0.0006.

As to `CCCCCCCCO` [octan-1-ol], the mass density in series [1] amounted to 825.95 ± 0.35 kg/m3. The refractive index in series [2] came out at 1.428 ± 0.0005.

`CCCC(=O)OCC` [ethyl butanoate]: the mass density in series [1] is on record as 879.18 ± 0.73 kg/m3. Moreover, the refractive index in series [2] was 1.3918 ± 0.0006.

In the case of `CCCCC(=O)OCC` [ethyl pentanoate], the mass density in series [1] is 877.15 ± 0.36 kg/m3. In addition, the refractive index in series [2] is given as 1.4125 ± 0.0005.

For `CCCCCCCCC(=O)OCC` [ethyl nonanoate], the mass density in series [1] is on record as 866.3 ± 0.72 kg/m3. The refractive index in series [2] turned out to be 1.4226 ± 0.0006.

For the compound `CC(=O)c1ccccc1` [acetophenone], the mass density in series [1] is reported as 1027.9 ± 0.93 kg/m3. Moreover, in series [2], the refractive index turned out to be 1.5361 ± 0.0006.
